Measured values from US4501755A, “Isoflavones useful as anti-inflammatory agents” (Pennwalt Corporation, priority 1982, dated 1985).
Where a name gives a salt, the structure may show the parent alone.

System: carrageenan-induced paw edemas of test rats
Test: carrageenan-induced paw edema (anti-inflammatory activity)
Assay type: in vivo, Male, Sprague-Dawley rats
Conditions: 50 mg/kg p.o.; carrageenan injected 2 hours after dosing, paw volume measured 3 hours later; control group paw volume as 100% edema
Description: These properties were determined by carrageenan-induced paw edemas of test rats. Male, Sprague-Dawley rats (Blue Spruce Farm) were ordered at 124-140 g, housed for one week, and allowed food and water ad libitum. At the time of the experiments, only rats weighing 160-200 g were used.
All compounds were dissolved or suspended in a 0.5% water solution of Methocel and orally administered to groups of six rats each. Control rats received Methocel only. Two hours later, paw edema was induced by subcutaneous injection into the plantar surface of the right hind paw of 0.1 ml of a 1.0% homogenized suspension of carrageenan.
Immediately, the volume of the paw was measured by immersing it in mercury to above the lateral mateolus. The mercury in a glass cylinder 22 mm in diameter and 60 mm deep was connected at the bottom of the cylinder by a column of water to a Statham transducer (model P23BB), range 0-5 cm of mercury pressure. The volume was recorded electronically on a Beckman recorder, R511. Three hours later, the inflamed paw volume was measured again, and the change in volume was recorded for each group. The percent inhibition of edema was calculated using the control group paw volume as 100% edema, i.e.,

Row | Compound | % Inhibition of Edema [%]
1 | CC(C)NCC(O)COc1ccc2c(=O)c(-c3ccccc3)coc2c1 (stereo not drawn) [Example 1, 7-(2-hydroxy-3-isopropylaminopropoxy)-3-phenylchromone hydrochloride] | 45
2 | CC(C)NCC(O)COc1ccc2c(=O)c(-c3ccccc3)c(C(F)(F)F)oc2c1 (stereo not drawn) [Example 4, 7-(2-hydroxy-3-isopropylaminopropoxy)-2-trifluoromethylisoflavone hydrochloride] | 31
3 | CC(C)NCC(O)COc1ccc2c(=O)c(-c3ccccc3)c(C(C)C)oc2c1 (stereo not drawn) [Example 5, 7-(2-hydroxy-3-isopropylaminopropoxy)-2-isopropylisoflavone maleate] | 29
